According to patent publication US20190374525A1, “TREATMENT OF DIABETES AND ASSOCIATED METABOLIC CONDITIONS WITH EPIGENETIC MODULATORS” (Temple Otorongo LLC, priority 2017, published 2019):

Tests used:
Format in all cases: in vivo
[1] = system: leptin receptor deficient transgenic mouse model (db/db); test: blood glucose levels in mouse model of severe type 2 diabetes and obesity; conditions: for blood glucose levels: mouse model of severe type 2 diabetes and obesity, FIG. 5 (Formula (I), 11 days), FIG. 7 (Formula (II), 19 days or 29-30 days)
Procedure: (§1) Fed blood glucose levels were measured over a period of 28 days. Fasting glucose levels were measured on days 19, 29, and 30. Glucose clearance was measured using the glucose tolerance test on days 29 and 30. Body weight was also measured as compounds may regulate the expression of genes that are involved in obesity.

[2] = system: leptin receptor deficient transgenic mouse model (db/db); test: liver enzymes (ALT and AST) in blood serum, mouse model of Type 2 diabetes and severe obesity; conditions: after 29-30 days; FIG. 11
[3] = body weight in mouse model of severe type 2 diabetes and obesity; conditions: after 9 days of treatment; FIG. 8
Procedure: as §1

## O=C(O)c1ccnc(C(=O)O)c1 [Formula (I), 2,4-pyridinedicarboxylic acid]
[1]; after 11 days of treatment, FIG. 5
  fed and fasting glucose levels: decrease in fed and fasting glucose levels
[1]
  blood glucose levels: significantly decrease blood glucose levels
[2]
  lowering of enzymes (ALT and AST) associated with liver disease measured in blood serum: 68%

## O=C(O)CCNc1cc(N2CCc3ccccc3CC2)nc(-c2ccccn2)n1 [Formula (II)]
[1]
  blood glucose levels: significantly decrease blood glucose levels

## CN(C)c1ccc(C(=O)NCCCCCC(=O)NO)cc1 [Formula (III)]
[3]
  body weight: significantly decrease body weight
